Patent publication US11234970B2, “Parasitic pest control agents comprising pyridone compounds as active ingredients and methods for using the same” (MITSUI CHEMICALS AGRO, INC., priority 2017, dated 2022)

System: heartworm microfillaria
Assay: Heartworm microfillaria mortality test (Test Example 1)
Type: in vitro
Settings: final concentration 100 μg/ml in culture broth; after culturing for 7 days; microfillaria collected from infected dogs
Experimental: Compound Nos. 32, 53, 54 and 55 were each dissolved in dimethyl sulfoxide to 10 mg/ml. These dimethyl sulfoxide solutions were diluted 100-fold to a final concentration of 100 μg/ml with the culture broth containing heartworm microfillaria collected from dogs infected with heartworm. The mortality rate of heartworm microfillaria was investigated after culturing for 7 days.
As a result, the mortality rate was 100% in each of the treatment groups.

With `CCn1c(-c2c(F)cccc2F)c(-c2cc(OC)cc(OC)c2Cl)ccc1=O` [Compound 32] the “mortality rate of heartworm microfillaria” value (“mortality rate” for short) was 100%.
With `CCn1c(-c2c(F)cccc2F)c(-c2cc(OC)ccc2Cl)ccc1=O` [Compound 53, 5-(2-chloro-5-methoxyphenyl)-6-(2,6-difluorophenyl)-1-ethylpyridine-2(1H)-one] the “mortality rate” value was 100%.
`CCn1c(-c2c(F)cccc2F)c(-c2cc(OC)ccc2Cl)cc(Cl)c1=O` [Compound 54, 3-chloro-5-(2-chloro-5-methoxyphenyl)-6-(2,6-difluorophenyl)-1-ethylpyridine-2(1H)-one] was tested, and the “mortality rate” value was 100%.
`CCn1c(-c2c(F)cccc2F)c(-c2cc(OC)ccc2Cl)cc(Br)c1=O` [Compound 55] was tested, and the “mortality rate” value was 100%.
